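The compound was tested at five concentrations on cells cultured in 96-well plates, with a 48-hour exposure period. GI50 marks 50% less growth.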 Activity calls are given as the source filed them. Rule as the data show it: active = GI50 up to about 1.1 µM and inactive = higher.
Assays:
Test in all cases: NCI tumour cell line growth inhibition, 48 h
A498 = tested on: A498
ACHN = tested on: ACHN
CAKI-1 = tested on: CAKI-1
HCC 2998 = tested on: HCC 2998
HCT-116 = tested on: HCT-116
K562 = tested on: K562
M14 = tested on: M14
MCF7 = tested on: MCF7
MDA-MB-231 = tested on: MDA-MB-231
MDA-MB-435 = tested on: MDA-MB-435
MDA-N = tested on: MDA-N
NCI/ADR-RES = tested on: NCI/ADR-RES
PC-3 = tested on: PC-3
RXF 393 = tested on: RXF 393
SK-MEL-28 = tested on: SK-MEL-28
SK-MEL-2 = tested on: SK-MEL-2
SK-MEL-5 = tested on: SK-MEL-5
SR = tested on: SR
UACC-257 = tested on: UACC-257

SMILES	GI50 (A498)	GI50 (ACHN)	GI50 (CAKI-1)	GI50 (HCC 2998)	GI50 (HCT-116)	GI50 (K562)	GI50 (M14)	GI50 (MCF7)	GI50 (MDA-MB-231)	GI50 (MDA-MB-435)	GI50 (MDA-N)	GI50 (NCI/ADR-RES)	GI50 (PC-3)	GI50 (RXF 393)	GI50 (SK-MEL-28)	GI50 (SK-MEL-2)	GI50 (SK-MEL-5)	GI50 (SR)	GI50 (UACC-257)
NN=C(CC(O)(C(F)(F)Cl)C(F)(F)Cl)CC(O)(C(F)(F)Cl)C(F)(F)Cl	> 10 µM (inactive)	> 10 µM (inactive)	> 10 µM (inactive)	> 10 µM (inactive)	> 10 µM (inactive)	> 10 µM (inactive)	> 10 µM (inactive)	> 10 µM (inactive)	> 10 µM (inactive)	> 10 µM (inactive)	> 10 µM (inactive)	> 10 µM (inactive)	> 10 µM (inactive)	> 10 µM (inactive)	> 10 µM (inactive)	> 10 µM (inactive)	> 10 µM (inactive)	> 10 µM (inactive)	> 10 µM (inactive)
CN(C)/C=N/S(=O)(=O)c1nn2c(C=O)c(-c3ccc(-c4ccc([N+](=O)[O-])cc4)o3)nc2s1	15.3 µM (inactive)	1.97 µM (inactive)	0.308 µM (active)	5.33 µM (inactive)	1.34 µM (inactive)	1.1 µM (active)	2.12 µM (inactive)	2.13 µM (inactive)	2.65 µM (inactive)	2.68 µM (inactive)	1.1 µM (active)	8.15 µM (inactive)	3.37 µM (inactive)	1.91 µM (inactive)	2.4 µM (inactive)	7.28 µM (inactive)	4.76 µM (inactive)	0.883 µM (active)	7.41 µM (inactive)
CC(C)Cn1cnc2c(SCc3ccccn3)nc(N)nc21	> 100 µM (inactive)	> 100 µM (inactive)	> 100 µM (inactive)	> 100 µM (inactive)	> 100 µM (inactive)	> 100 µM (inactive)	> 100 µM (inactive)	> 100 µM (inactive)	> 100 µM (inactive)	> 100 µM (inactive)	> 100 µM (inactive)	> 100 µM (inactive)	> 100 µM (inactive)	> 100 µM (inactive)	> 100 µM (inactive)	> 100 µM (inactive)	> 100 µM (inactive)	> 100 µM (inactive)	> 100 µM (inactive)
CC1(C)CC2=C(Sc3ccccc3N2)C(=O)C1C(=O)C(=O)Nc1cc(Cl)ccc1Cl (stereo not drawn)	> 100 µM (inactive)	> 100 µM (inactive)	> 100 µM (inactive)	> 100 µM (inactive)	> 100 µM (inactive)	> 100 µM (inactive)	> 100 µM (inactive)	> 100 µM (inactive)	> 100 µM (inactive)	> 100 µM (inactive)	> 100 µM (inactive)	63.2 µM (inactive)	84.5 µM (inactive)	> 100 µM (inactive)	> 100 µM (inactive)	> 100 µM (inactive)	42.1 µM (inactive)	> 100 µM (inactive)	> 100 µM (inactive)
COc1ccc(-c2cc(-c3ccc(Nc4ccnc5cc(C(F)(F)F)ccc45)cc3)[nH]c(=O)c2C#N)c2ccccc12	> 43 µM (inactive)	> 32.5 µM (inactive)	> 100 µM (inactive)	> 100 µM (inactive)	17.5 µM (inactive)	> 100 µM (inactive)	> 42.7 µM (inactive)	> 29.5 µM (inactive)	17.7 µM (inactive)	> 33.7 µM (inactive)	> 38.4 µM (inactive)	> 100 µM (inactive)	> 100 µM (inactive)	15.2 µM (inactive)	> 59.7 µM (inactive)	> 56 µM (inactive)	> 100 µM (inactive)	12.6 µM (inactive)	> 100 µM (inactive)
COn1cc(C=O)c2ccccc21	1.95 µM (inactive)	32.7 µM (inactive)	28.7 µM (inactive)	21.8 µM (inactive)	> 59 µM (inactive)	53.5 µM (inactive)	> 61.8 µM (inactive)	45.2 µM (inactive)	> 100 µM (inactive)	10.8 µM (inactive)	23.6 µM (inactive)	> 70.8 µM (inactive)	> 74.1 µM (inactive)	45.9 µM (inactive)	33.6 µM (inactive)	> 91.8 µM (inactive)	28.1 µM (inactive)	26.4 µM (inactive)	> 78.9 µM (inactive)
O=C1Nc2ccccc2/C1=c1\[nH]c(=O)/c(=C\c2ccc(OCc3ccccc3)cn2)[nH]c1=O	27.3 µM (inactive)	33.7 µM (inactive)	0.303 µM (active)	> 100 µM (inactive)	85.7 µM (inactive)	20.4 µM (inactive)	56.6 µM (inactive)	> 100 µM (inactive)	35.1 µM (inactive)	44.1 µM (inactive)	83.2 µM (inactive)	91.6 µM (inactive)	> 100 µM (inactive)	8.17 µM (inactive)	> 100 µM (inactive)	38.2 µM (inactive)	64.6 µM (inactive)	20.1 µM (inactive)	> 100 µM (inactive)

From ChEMBL document CHEMBL1201862, “PubChem BioAssay data set” (2004)
